What is called IC50 is the concentration needed to halve the response being measured.

Our source for the IC50 values is US20130012485A1, “ORGANIC COMPOUNDS” (priority 2006, published 2013).

The target in this experiment is T1, human DPP-IV (Homo sapiens, UniProt P27487).
T1 construct: Human DPP-IV consisting of amino acids 39 to 766 followed by a C-terminal Streptavidin-tag; Streptavidin-tag (C); made in house
Description: Activity assay: inhibitory activity to human DPP-IV, fluorogenic substrate H-Gly-Pro-AMC. It counts as biochemical. Particulars: H-Gly-Pro-AMC 10 μM, room temperature, monitored for 1 hour. The protocol: Various Example compounds were tested for their inhibitory activity to human DPP-IV.
Human DPP-IV consisting of amino acids 39 to 766 followed by a C-terminal Streptavidin-tag was expressed using the baculovirus system and purified to >80% purity. The enzyme was stored in 25 mM Tris buffer, pH 9.0, containing 300 mM NaCl at −80° C.
The fluorogenic substrates H-Gly-Pro-AMC was purchased from Bachem AG (Bubendorf, Switzerland). The substrate was kept as a 5 mM stock solution in DMSO at −20° C. All other chemicals were purchased from Sigma (Buchs, Switzerland).
The assay buffer for the DPP-IV reaction was 25 mM Tris/HCl, pH 7.5, containing 140 mM NaCl, 10 mM KCl and 0.05% (w/v) CHAPS.
The test compounds were dissolved in 90% DMSO/10% H2O (v/v). Serial dilutions of the compounds from 3 mM to 0.03 μM in 90% DMSO/10% H2O (v/v) followed by a 1:33.3 dilution in assay buffer was done in 96-well polypropylene plates using a CyBio Dilus 8-channel pipettor (CyBio AG, Jena, Germany) with tip change after each pipetting step. The compound solutions as well as the substrate and the enzyme solutions were transferred to the assay plates (384-well black Cliniplate; cat. no. 95040020 Labsystems Oy, Finland) by means of a CyBi-Well 96-channel pipettor (CyBio AG, Jena, Germany).
Enzyme kinetics were measured by mixing 10 μl of a 3-fold concentrated substrate solution in assay buffer (final substrate concentration was 10 μM) with 10 μl of the corresponding compound solution. The reactions were initiated by addition of 10 μl of a 3-fold concentrated solution of the enzyme in assay buffer. Final enzyme (active site) concentrations in the assay was […] for DPP-IV. Fluorescence product (AMC) formation was monitored for 1 hour at room temperature at 35 second intervals by measuring the fluorescence emission at 500 nm using an exitation wavelength of 350 nm in a TECAN Ultra fluorescence reader (TECAN, Maennedorf, Switzerland). The fluorescence in each well was excited by one flash per measurement. The Origin software package (Origin 7.5 Mircocal, Northampton, Mass., USA) was used to generate all graphs and to perform the IC50 calculations.

T1 sequence (P27487 39-766): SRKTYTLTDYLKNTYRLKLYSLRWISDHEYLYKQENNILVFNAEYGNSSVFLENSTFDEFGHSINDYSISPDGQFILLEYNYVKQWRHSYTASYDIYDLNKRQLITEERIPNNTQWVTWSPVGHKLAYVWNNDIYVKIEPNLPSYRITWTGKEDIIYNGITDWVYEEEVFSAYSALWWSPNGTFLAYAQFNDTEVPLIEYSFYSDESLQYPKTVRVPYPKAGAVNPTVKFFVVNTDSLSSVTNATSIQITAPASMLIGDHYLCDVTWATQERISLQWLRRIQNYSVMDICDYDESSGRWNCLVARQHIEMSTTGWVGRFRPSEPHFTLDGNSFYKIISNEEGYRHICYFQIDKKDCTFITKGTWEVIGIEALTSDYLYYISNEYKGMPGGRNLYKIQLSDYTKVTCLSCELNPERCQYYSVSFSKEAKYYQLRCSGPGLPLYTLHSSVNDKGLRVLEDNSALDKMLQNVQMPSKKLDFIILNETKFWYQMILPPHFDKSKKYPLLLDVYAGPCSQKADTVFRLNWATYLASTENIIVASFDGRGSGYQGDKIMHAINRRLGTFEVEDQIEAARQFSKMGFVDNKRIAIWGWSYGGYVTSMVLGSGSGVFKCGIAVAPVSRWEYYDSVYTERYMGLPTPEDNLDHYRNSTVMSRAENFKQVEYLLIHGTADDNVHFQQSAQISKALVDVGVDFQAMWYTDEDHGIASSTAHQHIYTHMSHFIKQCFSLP

`CS(=O)(=O)c1ccc(CN[C@H]2CC[C@](CN)(c3cccc(Cl)c3)CC2)cc1` returned an IC50 of 0.4 µM. Next, `Cc1ccnc([C@]2(CN)CC[C@@H](N3CCn4c(nnc4C(F)(F)F)C3)CC2)c1`: 0.25 µM.

Compound `CCOC(=O)N1CCC(N2CC(=O)N([C@H]3CC[C@](CN)(c4cccc(Cl)c4)CC3)CC2=O)CC1` returned an IC50 of 0.1 µM. `NC[C@]1(c2cccc(Cl)c2)CC[C@H](N2C(=O)OC[C@H]2Cc2ccccc2)CC1`: the IC50 was 0.2 µM. Compound `NC[C@]1(c2cccc(Cl)c2)CC[C@H](n2nc(-c3cnn(Cc4ccccc4)c3)ccc2=O)CC1` yielded an IC50 of 0.5 µM. Next, `Cn1ccc2cc(C(=O)N[C@H]3CC[C@](CN)(c4cccc(Cl)c4)CC3)ccc21`: 0.05 µM. `Cc1nc(=O)c2c([nH]1)CCC(CN)(c1cccc(Cl)c1)C2` (stereo not drawn) came in with an IC50 of 11.6 µM. Next, `CC1CC(=O)N([C@]2(CN)CC[C@@H](N3CCn4c(nnc4C(F)(F)F)C3)CC2)C1` (stereo partly drawn): 0.85 µM; `Cc1cccc(C2(CN)CCC(N3CCn4c(nnc4C(F)(F)F)C3)C2)c1` (stereo not drawn): 5.05 µM. With `NCC1(c2cccc(Cl)c2)CCC(Oc2ccc(Br)cn2)CC1` (stereo not drawn) the figure was 0.2 µM. With `NC[C@]1(c2cccc(Cl)c2)CC[C@H](N(Cc2ccn[nH]2)C(=O)c2cccnc2)CC1` the figure was 0.45 µM; with `Cc1n[nH]c(C)c1CCn1cc(-c2ccc(=O)n([C@H]3CC[C@](CN)(c4cccc(Cl)c4)CC3)n2)nn1`, 0.85 µM.
